Reference: patent US10188689B2, “Method and composition for treating breast cancer” (STELLENBOSCH UNIVERSITY, priority 2014, dated 2019)

System: Phospho-ser15-p53
Test: Western blot of tumours from treated mice: phospho-ser15-p53
Type: in vivo, C57BL6 mice
Conditions: tumours of Dox treated mice, seven days
Description: Following the weighing and grouping of mice, treatment with D. viscosa extract commenced. Tumour size was measured every two days by taking measurements in two perpendicular dimensions using digital calipers. The D. viscosa extract was administered through raspberry flavoured jelly blocks. Mice were conditioned to the taste of the jelly four days before treatment began. Human dosage (5.24 mg/kg/day) and the Km factor were used for dose translation based on body surface area to calculate animal dosage to be administered (Reagan-Shaw et al., 2007). On the day of treatment, mice were put in separate cages and given a 1 cm×1 cm block of jelly injected with 146 μL extract per jelly block (0.065 mg/g average bodyweight) at dusk every day, for a period of seven days. The day after the last treatment, mice were sacrificed by decapitation, where after tumours were harvested and frozen at −80° C. until needed.
Protein extraction from cells took place after the 24 hour treatment period. The medium was aspirated and the flasks were placed on ice. […] Cell lysates were then centrifuged at room temperature for 10 minutes at 8000 rpm, where after the protein content of each lysate was determined using the Bradford method (Bradford, 1976). […] After extraction protein content was determined with the Bradford method (Bradford, 1976) and stored at −80° C. until analysis, […]

Structure (SMILES): COc1cccc2c1C(=O)c1c(O)c3c(c(O)c1C2=O)C[C@@](O)(C(=O)CO)C[C@@H]3O[C@H]1C[C@H](N)[C@H](O)[C@H](C)O1 [Dox, doxorubicin]
- level of p53 in tumours (ratio of phospho-ser15-p53 to total p53): 5.3±1.016 fold increase relative to cont
